Reference: US20080021026A1, “BENZOTHIOPHENE INHIBITORS OF RHO KINASE” (priority 2006, published 2008)
One block for each compound: values may come before it.

Assays:
[1] = target: T1, recombinant N-terminal GST-tagged human Rho kinase 2 (ROCK2, amino acids 1-552) (Homo sapiens, UniProt O75116); experiment: In vitro Rho kinase assay (luciferase-based ATP consumption), ROCK2; assay type: biochemical; details: recombinant GST-tagged human ROCK2, luciferase-based ATP consumption; read-out: ROCK2 IC50
T1 construct: ROCK2, amino acids 1-552; purchased Invitrogen Inc. PV3759
T1 sequence (O75116 1-552): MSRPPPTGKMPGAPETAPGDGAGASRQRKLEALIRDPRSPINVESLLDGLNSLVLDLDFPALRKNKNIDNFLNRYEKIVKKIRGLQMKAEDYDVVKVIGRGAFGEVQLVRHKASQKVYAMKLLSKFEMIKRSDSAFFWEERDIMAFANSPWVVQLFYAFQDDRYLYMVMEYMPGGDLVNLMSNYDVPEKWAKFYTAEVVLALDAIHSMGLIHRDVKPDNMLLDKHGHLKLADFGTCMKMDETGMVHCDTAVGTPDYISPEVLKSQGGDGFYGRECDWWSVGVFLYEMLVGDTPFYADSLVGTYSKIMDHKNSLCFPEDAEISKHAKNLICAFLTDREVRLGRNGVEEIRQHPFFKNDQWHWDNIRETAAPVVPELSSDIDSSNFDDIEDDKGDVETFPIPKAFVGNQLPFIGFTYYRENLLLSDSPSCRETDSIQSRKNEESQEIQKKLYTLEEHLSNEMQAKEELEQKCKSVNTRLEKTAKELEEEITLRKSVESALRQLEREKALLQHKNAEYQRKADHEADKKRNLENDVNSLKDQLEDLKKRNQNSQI
Summary of the method: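 Luciferase-based luminescence of leftover ATP after 2 h at 30 °C, where inhibition raises signal, reports activity of GST-tagged ROCK2 (aa 1-552) at 0.82 μg/ml. Conditions: S6 peptide 100 μg/ml, […], pH 7.5 Tris buffer. Results given as percent of H-1152P control activity.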

[2] = target: T2, recombinant N-terminal GST-tagged human Rho kinase 1 (ROCK1, amino acids 1-535) (Homo sapiens, UniProt Q13464); experiment: In vitro Rho kinase assay (luciferase-based ATP consumption), ROCK1; assay type: biochemical; details: recombinant GST-tagged human ROCK1, luciferase-based ATP consumption; read-out: ROCK1 IC50
T2 construct: ROCK1, amino acids 1-535; purchased Invitrogen Inc. PV-3691
T2 sequence (Q13464 1-535): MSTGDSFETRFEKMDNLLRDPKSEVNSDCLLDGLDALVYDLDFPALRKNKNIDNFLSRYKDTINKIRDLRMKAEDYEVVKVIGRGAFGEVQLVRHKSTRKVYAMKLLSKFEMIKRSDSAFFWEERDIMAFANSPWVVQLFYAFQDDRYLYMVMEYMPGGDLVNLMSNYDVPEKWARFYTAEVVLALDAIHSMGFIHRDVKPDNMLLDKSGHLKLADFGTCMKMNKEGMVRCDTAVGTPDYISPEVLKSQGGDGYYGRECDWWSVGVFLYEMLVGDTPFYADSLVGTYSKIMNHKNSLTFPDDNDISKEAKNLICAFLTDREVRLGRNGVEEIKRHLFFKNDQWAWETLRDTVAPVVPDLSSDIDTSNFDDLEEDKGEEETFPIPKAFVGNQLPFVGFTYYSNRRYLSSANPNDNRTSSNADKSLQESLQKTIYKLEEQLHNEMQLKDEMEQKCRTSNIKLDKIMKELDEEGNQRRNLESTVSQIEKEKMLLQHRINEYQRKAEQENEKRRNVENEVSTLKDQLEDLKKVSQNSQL
Summary of the method: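 ATP depletion measured by firefly luciferase luminescence after 2 h at 30 °C, with inhibition raising signal and activity expressed relative to H-1152P. Reaction: 0.82 μg/ml recombinant GST-tagged ROCK1 (aa 1-535), S6 peptide 100 μg/ml, […], pH 7.5 Tris buffer.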

[3] = tested on: lasered (hypertensive) eyes of conscious cynomolgus monkeys; experiment: Acute IOP response in lasered (hypertensive) eyes of conscious cynomolgus monkeys; assay type: in vivo; details: instilled in right eye, IOP measured at 1, 3 and 6 hours, peak reduction; for Peak % Lowering of IOP vs. Control at 0.3%: compound concentration 0.3%
Description: Acute IOP Response in Lasered (Hypertensive) Eyes of Conscious Cynomolgus Monkeys
Intraocular pressure (IOP) can be determined with an Alcon Pneumatonometer after light corneal anesthesia with 0.1% proparacaine. Eyes are washed with saline after each measurement. After a baseline IOP measurement, test compound is instilled in one […] aliquot to the right eyes only of nine cynomolgus monkeys. Vehicle is instilled in the right eyes of six additional animals. Subsequent IOP measurements are taken at 1, 3, and 6 hours, and peak reduction in IOP is reported below in Table 2 as percent of IOP lowering versus the control for each of the given concentrations of compound.
A more detailed description of the assay used herein may be found in May et al., “Evaluation of the Ocular Hypotensive Response of Serotonin 5-HT1A and 5-HT2 Receptor Ligands in Conscious Ocular Hypertensive Cynomolgus Monkeys,” J. of Pharmacology and Experimental Therapeutics, vol. 306(1), pp. 301-309 (2003), the disclosure of which is hereby incorporated by reference as if written herein in its entirety.

IC50 [1]: > 5 µM
IC50 [2]: < 5 µM
Structure (SMILES): CCC(C)C(NC(=O)OC(C)(C)C)C(=O)NCc1ccc2sc(-c3ccnc(N)n3)c(C)c2c1 (centres unmarked) [Example 322, CCC(C)[C](NC(═O)OC(C)(C)C)C(═O)NCc1ccc2sc(c(C)c2c1)-c3ccnc(N)n3]

IC50 [1]: > 5 µM
IC50 [2]: < 5 µM
Structure (SMILES): Cc1c(-c2ccnc(N)n2)sc2ccc(CNC(=O)C(CC(C)C)NC(=O)OC(C)(C)C)cc12 (centres unmarked) [Example 323, CC(C)C[C](NC(═O)OC(C)(C)C)C(═O)NCc1ccc2sc(c(C)c2c1)-c3ccnc(N)n3]

IC50 [1]: > 5 µM
IC50 [2]: < 5 µM
Structure (SMILES): Cc1c(-c2ccnc(N)n2)sc2ccc(CNC(=O)C(Cc3ccccc3)NC(=O)OC(C)(C)C)cc12 (centres unmarked) [Example 325, Cc1c(sc2ccc(CNC(═O)[C](Cc3ccccc3)NC(═O)OC(C)(C)C)cc12)-c4ccnc(N)n4]

IC50 [1]: > 5 µM
IC50 [2]: < 5 µM
Structure (SMILES): Cc1c(-c2ccnc(N)n2)sc2ccc(CNC(=O)C(Cc3ccccn3)NC(=O)OC(C)(C)C)cc12 (centres unmarked) [Example 326, Cc1c(sc2ccc(CNC(═O)[C](Cc3ccccn3)NC(═O)OC(C)(C)C)cc12)-c4ccnc(N)n4]

IC50 [1]: > 5 µM
IC50 [2]: < 5 µM
Structure (SMILES): Cc1c(-c2ccnc(N)n2)sc2ccc(CNC(=O)C3Cc4ccccc4CN3C(=O)OC(C)(C)C)cc12 (centres unmarked) [Example 327, Cc1c(sc2ccc(CNC(═O)[C]3Cc4ccccc4CN3C(═O)OC(C)(C)C)cc12)-c5ccnc(N)n5]

IC50 [1]: < 5 µM
IC50 [2]: < 5 µM
Structure (SMILES): Cc1c(-c2ccnc(N)n2)sc2ccc(CNC(=O)C(Cc3ccc(O)cc3)NC(=O)OC(C)(C)C)cc12 (centres unmarked) [Example 328, Cc1c(sc2ccc(CNC(═O)C(Cc3ccc(O)cc3)NC(═O)OC(C)(C)C)cc12)c4ccnc(N)n4]

The next lines start with the compound.

Structure (SMILES): COc1cccc(Cc2ccc3sc(-c4ccnc(N)n4)c(C)c3c2)c1 [Example 26, 4-(5-(3-Methoxybenzyl)-3-methylbenzo[b]thiophen-2-yl)pyrimidin-2-amine]
IC50 [1]: < 5 µM
IC50 [2]: < 5 µM
Peak % Lowering of IOP vs. Control at 0.3% [3]: 9.8%

Structure (SMILES): Cc1c(-c2ccnc(N)n2)sc2ccc(Cc3cccc(O)c3)cc12 [Example 27, 3-((2-(2-Aminopyrimidin-4-yl)-3-methylbenzo[b]thiophen-5-yl)methyl)phenol]
IC50 [1]: < 5 µM
IC50 [2]: < 5 µM
Peak % Lowering of IOP vs. Control at 0.3% [3]: 3.6%

Structure (SMILES): COc1cccc(Nc2ccc3sc(-c4ccnc(N)n4)c(C)c3c2)c1 [Example 51, 4-(5-(3-Methoxyphenylamino)-3-methylbenzo[b]thiophen-2-yl)pyrimidin-2-amine]
IC50 [1]: < 5 µM
IC50 [2]: < 5 µM
Peak % Lowering of IOP vs. Control at 0.3% [3]: 9.5%
Peak % Lowering of IOP vs. Control at 1.0% ([3]; compound concentration 1.0%): 18.6%

Structure (SMILES): Cc1c(-c2ccnc(N)n2)sc2ccc(CNC(=O)C3CCCN3C(=O)OCc3ccccc3)cc12 (centres unmarked) [Example 321, Cc1c(sc2ccc(CNC(═O)[C]3CCCN3C(═O)OCc4ccccc4)cc12)-c5ccnc(N)n5]
IC50 [1]: > 5 µM
IC50 [2]: < 5 µM

Structure (SMILES): Cc1c(-c2ccnc(N)n2)sc2ccc(CNC(=O)C(C)c3cccc(C(=O)c4ccccc4)c3)cc12 (centres unmarked) [Example 324, CC(C(═O)NCc1ccc2sc(c(C)c2c1)-c3ccnc(N)n3)c4cccc(c4)C(═O)c5ccccc5]
IC50 [1]: > 5 µM
IC50 [2]: > 5 µM
